Tests used:
cancerous tissue = experiment: Preclinical / animal model studies of duration of VGT-309 fluorescence in tissue; assay type: in vivo
Text: There are several molecular imaging agents that are currently in various stages of development and testing, but of these agents VGT-309 is particularly advantageous. VGT-309 targets and covalently binds to cathepsin targets, which are present in larger amounts in solid tumors and tumor margins than in normal tissues. When this binding occurs, the quencher is cleaved from the molecule and VGT-309 becomes “active” at which point the tumor will fluoresce under near-infrared (NIR) light.

tumor [1] = experiment: Intraoperative NIR imaging of patients given VGT-309 before surgery; assay type: in vivo, human; details: patient
Text: A patient appeared to have a localized tumor, as identified by the preoperative scans, but the surgeon identified lymph node spread during resection with VGT-309. […] Absent from these scans were any evidence of spread to other areas of the lungs or the lymph nodes. […] […] The surgeon also visually examined and biopsied the proximal lymph nodes, neither of which indicated the tumor had spread. […] The surgeon was therefore able to perform a biopsy, which confirmed that the cancer had spread, and as a result re-staged the patient in real-time and performed a radical lymph node dissection. At the end of the procedure, the surgeon removed all traces of the cancer.
However, it was confirmed under NIR that this abnormal lung tissue was in fact cancerous.

tumor [2] = experiment: Phase 2 study of VGT-309 in Australia: clinically significant events (CSEs) during tumor removal; assay type: in vivo, human; details: Phase 2 study in Australia
Text: CSEs are one way to measure whether an imaging agent, such as VGT-309, adds a clinical benefit to the diagnosis and treatment process. In this context, CSEs generally fall into one of three categories: (1) localization of hard-to-find tumors, (2) identification of positive resection margins, and (3) identification of additional primary and metastatic lesions that were not previously detected using existing technologies. […] In a Phase 2 study of VGT-309 in Australia, one third of patients experienced a […]

## CC1(C)C(/C=C/C2=C(Cl)C(=C/C=C3/N(CCCCCC(=O)NCCNC(=O)c4c(F)c(F)c(OCC(=O)[C@H](CCCCNC(=O)CCCCCN5/C(=C/C=C/C=C/C=C\C6=[N+](CCCCS(=O)(=O)O)c7ccc8ccccc8c7C6(C)C)C(C)(C)c6c5ccc5ccccc65)NC(=O)[C@H](Cc5ccccc5)NC(=O)OCc5ccccc5)c(F)c4F)c4ccc5cc(S(=O)(=O)O)ccc5c4C3(C)C)/CCC2)=[N+](CCCS(=O)(=O)O)c2ccc(N(CCCS(=O)(=O)O)CCCS(=O)(=O)O)cc21 [VGT-309]
Cancerous tissue; animal model studies suggest
  time following administration out to which VGT-309 may continue to emit a signal in tissue: seven days
Cancerous tissue; based on preclinical studies
  time after administration at which VGT-309 can fluoresce cancerous tissue: two hours to four days
Tumor [1]; Example 2, 0.16 mg/kg, approximately 21 hours prior to surgery, biopsy confirmed that the cancer had spread
  detection of lymph node spread under NIR: unexpected fluorescence in a more distant lymph node
Tumor [1]; Example 3, 0.32 mg/kg, approximately 18.5 hours prior to surgery
  identification of metastatic spread / additional tumors under NIR: identify additional tumors using NIR
Tumor [2]
  fraction of patients who experienced a clinically significant event (CSE): one third
